Measured values as given in patent publication US20150094328A1, “4-Azaindole Derivatives” (Eisai R&D Management Co., Ltd., priority 2013, published 2015).

Tested on: male Crlj: WI rats
Test: Morris water maze test in ibotenic acid-induced learning disability model
Type: in vivo, rat
Method: Ibotenic acid at 5 μg/0.5 μL was injected into both basal nuclei of 8-week old male Crlj: WI rats, and a Morris water maze test was performed 10-14 days after ibotenic acid injection. It has been reported that rats in which basal forebrain was lesioned by ibotenic acid injection show learning disability in the Morris water maze test. (Pharmacopsychiat, 1999, 32, 242-247). The test is considered a model of spatial learning and memory.
Learning trials were performed twice a day at an interval of 3 hours for 4 days (8 times in total), and probe trials were performed once the day after completion of the learning trials. Each test compound was dissolved in a 0.5% methylcellulose in water and orally administered 1 hour before the first trial on each day of the learning trials and 1 hour before the trial on the day of the probe trials. […]
In learning trials, the animal was put into water and goal latency and swimming distance to reach the platform were measured (measurement time: 90 seconds at the longest) by a video image behavioral analysis device (Etho Vision XT, Noldus Information Technology Inc.). […]
In probe trials, the platform was removed from the pool. The animal was put into water, and the swimming time in the quadrant where the platform had been located in the learning trials and the frequency of entry into the platform area where the platform had been located in the learning trials were measured by Etho Vision XT.
Each value was shown as an average and a standard error (n=10). The statistical significance between a control group and a vehicle group was analyzed by the independent t-test. The statistical significance between the vehicle group and each sample group was analyzed by one-way analysis of variance and then by Dunnett's multiple comparison test. […]

Measured: Goal latency [mean ± SEM]

O=C(N[C@H]1CCCC[C@@H]1O)c1cn(Cc2ccc(F)cc2)c2cccnc12 [Example 5, 1-(4-Fluorobenzyl)-N-((1S,2S)-2-hydroxycyclohexyl)-1H-pyrrolo[3,2-b]pyridine-3-carboxamide]
[90 ± 0.00] sec.: Trial 1, 0.1 mg/kg p.o. | Trial 1, 0.3 mg/kg p.o. | Trial 2, 0.1 mg/kg p.o.
